# Values of other authors, collected in patent US9757705B2, “Method for production of concentrates of preferably water-soluble active agents” (KWIZDA AGRO GMBH, priority 2013, dated 2017).
# Settings: at 20° C.; according to literature
compound,measurement,value
C/C(=N\C#N)N(C)Cc1ccc(Cl)nc1 [Acetamiprid],solubility,400 mg/100 ml
